This is an account of results in paper PMC12444472, “BCI inhibits MKP3 by targeting the kinase-binding domain and disrupting ERK2 interaction” (The Journal of Biological Chemistry, 2025).

This assay deals with T1, MKP2^KBD (Homo sapiens, UniProt Q13115).
T1 construct: MKP2(5–159) (MKP2^KBD); made in house; host or cells: Escherichia coli BL21(DE3)
T1 sequence (Q13115 5-159): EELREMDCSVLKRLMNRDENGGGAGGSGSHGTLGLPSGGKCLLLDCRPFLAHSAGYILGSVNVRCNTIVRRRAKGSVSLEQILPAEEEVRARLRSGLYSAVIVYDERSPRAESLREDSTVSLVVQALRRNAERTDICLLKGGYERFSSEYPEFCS
The assay is described as follows: NMR titration (1H-15N HSQC). Format: binding. The following applies: molar ratio to BCI 1:13. On the procedure: NMR data were collected at 298 K on a Bruker AVANCE NEO 800 MHz spectrometer (Bruker BioSpin) equipped with a ^1H&^19F/^13C/^15N TCI cryogenic probe. Backbone resonances of MKP3^1–154 were assigned using 2D/3D experiments, including 2D ^1H–^15N HSQC and 3D ^1H/^13C/^15N CBCA(CO)NH, HNCACB, HNCO, and HN(CA)CO, performed with uniformly ^13C/^15N labeled protein at a final concentration of 0.39 mM in buffer containing 20 mM imidazole (pH 6.0), 100 mM NaCl, 5 mM DTT, 0.5 mM EDTA, and 5% (v/v) D2O. The buffer used for backbone resonance assignment was similar to that used for the previously reported NMR structure ([15]). NMR titration experiments were conducted using ^15N-labeled MKP3^1–154, MKP3^14–152, MKP3^204–350, MKP1^1–141, MKP2^5–159, MKPX^1–140, MKP4^1–143, and MKP5^139–287. 2D ^1H–^15N HSQC spectra of ^15N-labeled MKPs^KBD (0.1 mM) were acquired in the absence and presence of BCI (50 mM stock in DMSO-d6) in buffer containing 50 mM KH2PO4–K2HPO4 (pH 7.2), 100 mM KCl, 1 mM Tris(2-carboxyethyl)phosphine hydrochloride, 1 mM EDTA, and 5% (v/v) D2O. Control experiments, in which only the corresponding volume of DMSO-d6 was added to ^15N-labeled proteins, were performed to exclude possible effects of DMSO on the interactions. For ^15N T1 measurements, the relaxation delay times were set to 20 (×2), 100, 200 (×2), 300, 400, 600 (×2), 800, 1200, and 1600 ms. For ^15N T2 measurements, the delay times were 7.84, 15.68 (×2), 23.52, 31.36 (×2), 39.2, 47.04 (×2), 54.88, 62.72, 78.4, 94.08, and 109.76 ms. The relaxation rates R1 (1/T1) and R2 (1/T2) for each residue were determined by fitting the peak intensities from spectra acquired at the various delay times to a single-exponential decay function: I/I0 = exp(-R1,2·t), where I0 is the intensity at t = 0, and I is the intensity at a delay time t. Repeated measurements were used to estimate the uncertainties of the R1 and R2 values via Monte Carlo analysis. Heteronuclear steady-state ^1H–^15N NOE experiments were acquired in an interleaved mode, with 5 s of ^1H saturation for NOE build-up and 5 s of relaxation delay for the reference spectra. Repeated experiments were performed to estimate uncertainties, and the propagated error for each NOE value was calculated using the following equation: σNOE = NOE × ((σsat/Isat)^2+(σunsat/Iunsat)^2)^1/2, where σsat and σunsat are the SDs of the saturated and unsaturated spectra, respectively, and Isat and Iunsat are the corresponding signal intensities. NMR data were processed using TopSpin 4.1.1 (Bruker BioSpin) or NMRPipe ([54]) and analyzed with POKY ([55]).

As for `O=C1/C(=C/c2ccccc2)C(NC2CCCCC2)c2ccccc21` (stereo not shown) [BCI, (E)-2-benzylidene-3-(cyclohexylamino)-2,3-dihydro-1H-inden-1-one], the “perturbation of NMR spectrum” value is recorded as “Peak broadening was detected”.
